The values that follow come from patent US11629144B2, “Crystal form of monomethanesulfonate of deuterated 3-(4,5-substituted aminopyrimidine)phenyl compound and preparation method therefor” (NANJING CHUANGTE PHARMACEUTICAL TECHNOLOGY CO., LTD., priority 2018, dated 2023).

Structures are written as SMILES. “Also recorded” adds a separate entry of the source.

Type in all cases: physicochemical
Data set [1] is described as follows: Stability differential scanning calorimetry (DSC) test. The note with it: rate of temperature rise 10.00° C./min. The method, then: 1. Stability Differential Scanning Calorimetry (DSC) Test
Instrument: NETZSCH DSC 204 type differential thermal analyzer
Rate of temperature rise: 10.00° C./min
On the technique in general: DSC measures the heat that a sample takes up or gives off during a temperature scan.

A short description of data set [2]: Crystal influence factor test (high temperature, high humidity, illumination, 15 days). Particulars: high-humidity and illumination conditions for 15 days. The source says: 2. Crystal Influence Factor Test
The nature of data set [3]: Long-term lofting experiments. Particulars: 25±5° C., RH 60%±10%; for Loss on diying: limit ≤1.0; for Maximum individual impurity: limit ≤2.50; for Total impurity: limit ≤4.0%; for Methanesulfonic acid (%): limit ≤15.0-15.8%; for Content (%): should not be less than 78.0%. The method, then:
4. Long-Term Lofting Experiments
A sample of the crystal form B of the monomethanesulfonate of the compound shown in formula I was placed in a petri dish under the conditions of the temperature being 25±5° C. and the relative humidity being 60%±10% and was sampled and tested at 0 hour, 3 months, and 6 months respectively, with the results shown in Table 2: […]

A further data set in a line: Accelerated lofting test. On the set-up: Maximum individual impurity / Loss on drying: unit not given here. Particulars: 40±2° C., RH 75%±5%; for Loss on drying: limit ≤1.0; for Maximum individual impurity: limit ≤2.50; for Total impurity: limit ≤4.0%; for Methanesulfonic acid (%): limit ≤15.0-15.8%; for Content (%): should not be less than 78.0%. The method, then:
3. Accelerated Lofting Test
A sample of the crystal form B of the monomethanesulfonate of the compound shown in formula I was placed in a petri dish and was sampled and tested at 0 hour, 1 month, 2 months, 3 months, and 6 months respectively at a temperature of 40±2° C. and a relative humidity of 75%±5%, with the results shown in Table 1: […]

Take `[2H]C([2H])([2H])N(C)CCN(C)c1cc(OC)c(Nc2nccc(-c3cn4c5c(cccc35)CCC4)n2)cc1NC(=O)C=C` [crystal form A]: in data set [1], the “DSC peak (stability of heat exchange range)” value was “a single peak value is observed”. In addition, the “Crystal transformation (X-ray diffraction pattern)” value in data set [2] was “can be converted into the crystal form B of the monomethanesulfonate under the high-temperature or high-humidity condition; also recorded: converted to the crystal form B of the monomethanesulfonate at high temperature and high humidity”.
For the compound `[2H]C([2H])([2H])N(C)CCN(C)c1cc(OC)c(Nc2nccc(-c3cn4c5c(cccc35)CCC4)n2)cc1NC(=O)C=C` [crystal form B], the Loss on diying in data set [3] (0 month) worked out at 0.08; in data set [3] (3 months), 0.08; in data set [3] (6 months) it was 0.6. The Maximum individual impurity was found to be 1.62 in data set [3] (0 month); 1.65 in data set [3] (3 months); 1.48 in data set [3] (6 months); 1.62 in “Accelerated lofting test” (0 month); 1.87 in “Accelerated lofting test” (1 month); 1.42 in the data set “Accelerated lofting test” (2 months). The Maximum individual impurity in the data set “Accelerated lofting test” (3 months) is 1.62; in the data set “Accelerated lofting test” (6 months), 1.61. For the same compound, the Total impurity in data set [3] (0 month) turned out to be 2.55%; in data set [3] (3 months) it was 2.78%; in data set [3] (6 months) it was 2.50%; in “Accelerated lofting test” (0 month), 2.55%; in “Accelerated lofting test” (1 month) it was 3.12%; in the data set “Accelerated lofting test” (2 months) it was 2.72%. For the same compound, the values for the Total impurity in “Accelerated lofting test” (3 months) and in the data set “Accelerated lofting test” (6 months) were 2.72% and 2.74%, respectively. Moreover, the “Methanesulfonic acid (%)” value came to 15.5% in data set [3] (0 month); 15.4% in data set [3] (3 months); 15.4% in data set [3] (6 months); 15.5% in the data set “Accelerated lofting test” (0 month); 15.2% in the data set “Accelerated lofting test” (1 month); 15.4% in the data set “Accelerated lofting test” (2 months). Besides, the “Methanesulfonic acid (%)” value in the data set “Accelerated lofting test” (3 months) and in the data set “Accelerated lofting test” (6 months) was 15.4% throughout. In addition, the “Content (%)” value in data set [3] (0 month) was found to be 80.5%; in data set [3] (3 months), 80.0%; in data set [3] (6 months), 82.3%; in “Accelerated lofting test” (0 month), 80.5%; in “Accelerated lofting test” (1 month) it was 82.2%; in “Accelerated lofting test” (2 months), 82.3%. Moreover, the “Content (%)” value was 79.5% in the data set “Accelerated lofting test” (3 months) and 80.8% in the data set “Accelerated lofting test” (6 months). Moreover, the “Crystal form by X-ray powder diffraction pattern compared with before the experiments” value (in data set [3] (6 months); in the data set “Accelerated lofting test” (6 months)) was “the crystal form was not changed” throughout. Besides, the “Change of all investigation items” value (in data set [3] (up to 6 months); in “Accelerated lofting test” (up to 6 months)) was “all investigation items have no obvious change” throughout. For the same compound, the Loss on drying in the data set “Accelerated lofting test” (0 month) is on record as 0.08; in “Accelerated lofting test” (1 month), 0.03; in the data set “Accelerated lofting test” (2 months), 0.03; in the data set “Accelerated lofting test” (3 months), 0.03; in “Accelerated lofting test” (6 months), 0.14.
